Experimental data published in US6472348B1, “Pyridone derivatives and herbicides” (Kumiai Chemical Industry Co., Ltd., priority 1996, dated 2002).

Tested on: corn (Ze)
Assay: Test Example 7: crop plant selectivity by upland field soil treatment (corn), phytotoxicity
Type: in vivo
Parameters: scale not given here
Conditions: dose 6.3 g ai/10a, 21st day after application
Experimental: (§1) (Test on Crop Plant Selectivity by Upland Field Soil Treatment)
(§2) In a plastic pot (surface area: 600 cm^2) filled with sand, corn (Ze), green foxtail (Se), pale smartweed (Po), slender amaranth (Am), common lambsquarters (Ch) and China jute (Ab) were sown and covered with soil. […] The plants were then cultured in a green house, and the evaluation of the herbicidal effects and phytotoxicity was conducted on the 21st day after the application in accordance with the standards as identified in Table 47.

Row | SMILES | Phytotoxicity Ze
1 | Cn1c(C(F)(F)F)ccc(-c2cc(OCC(F)F)c(Cl)cc2F)c1=O [1-173] | 1

Tested on: bulrush (Sc)
Assay: Test Example 1: herbicidal effects by paddy field soil treatment;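 note: grade of growth control; 5 = at least 90%; 4 = 70 to 90%; 3 = 50 to 70%; 2 = 30 to 50%; 1 = 10 to 30%; 0 = under 10%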
Type: in vivo
Conditions: 100 g of the active ingredient per 10 ares, 21st day after the application, index 0-5 of Table 47
Outline: (§3)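 Herbicidal effect was scored against a graded standard 21 days after treatment. Seeds were sown in puddled, leveled paddy soil flooded to 3 cm depth, and the active ingredient was applied at 100 g per 10 ares before greenhouse culture.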

Row | SMILES | Herbicidal effects Sc
2 | Cn1c(C(F)(F)F)ccc(-c2cc(OCC(F)F)c(Cl)cc2F)c1=O [1-173] | 5

Tested on: monochoria (Mo)
Assay: as above
Type: in vivo
Conditions: 100 g of the active ingredient per 10 ares, 21st day after the application, index 0-5 of Table 47
Outline: as §3

Row | SMILES | Herbicidal effects Mo
3 | Cn1c(C(F)(F)F)ccc(-c2cc(OCC(F)F)c(Cl)cc2F)c1=O [1-173] | 5

Tested on: barnyardgrass (Ec)
Assay: as above
Type: in vivo
Conditions: 100 g of the active ingredient per 10 ares, 21st day after the application, index 0-5 of Table 47
Outline: as §3

Row | SMILES | Herbicidal effects Ec
4 | Cn1c(C(F)(F)F)ccc(-c2cc(OCC(F)F)c(Cl)cc2F)c1=O [1-173] | 5

Tested on: common lambsquarters (Ch)
Assay: Test Example 2: herbicidal effects by upland field soil treatment;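 note: grade of growth control; 5 = at least 90%; 4 = 70 to 90%; 3 = 50 to 70%; 2 = 30 to 50%; 1 = 10 to 30%; 0 = under 10%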
Type: in vivo
Conditions: 100 g of the active ingredient per 10 ares, evaluated on the 21st day after application
From the text: (§4) (Test on Herbicidal Effects by Upland Field Soil Treatment)

Row | SMILES | Herbicidal effects Ch
5 | Cn1c(C(F)(F)F)ccc(-c2cc(OCC(F)F)c(Cl)cc2F)c1=O [1-173] | 5

Tested on: Digitaria ciliaris (Di)
Assay: as above
Type: in vivo
Conditions: 100 g of the active ingredient per 10 ares, evaluated on the 21st day after application
From the text: as §4

Row | SMILES | Herbicidal effects Di
6 | Cn1c(C(F)(F)F)ccc(-c2cc(OCC(F)F)c(Cl)cc2F)c1=O [1-173] | 5

Tested on: slender amaranth (Am)
Assay: as above
Type: in vivo
Conditions: 100 g of the active ingredient per 10 ares, evaluated on the 21st day after application
From the text: as §4

Row | SMILES | Herbicidal effects Am
7 | Cn1c(C(F)(F)F)ccc(-c2cc(OCC(F)F)c(Cl)cc2F)c1=O [1-173] | 5

Tested on: rice flatsedge (Ci)
Assay: as above
Type: in vivo
Conditions: 100 g of the active ingredient per 10 ares, evaluated on the 21st day after application
From the text: as §4

Row | SMILES | Herbicidal effects Ci
8 | Cn1c(C(F)(F)F)ccc(-c2cc(OCC(F)F)c(Cl)cc2F)c1=O [1-173] | 5

Tested on: pale smartweed (Po)
Assay: as above
Type: in vivo
Conditions: 100 g of the active ingredient per 10 ares, evaluated on the 21st day after application
From the text: as §4

Row | SMILES | Herbicidal effects Po
9 | Cn1c(C(F)(F)F)ccc(-c2cc(OCC(F)F)c(Cl)cc2F)c1=O [1-173] | 5

Tested on: barnyardgrass (Ec)
Assay: as above
Type: in vivo
Conditions: 100 g of the active ingredient per 10 ares, evaluated on the 21st day after application
From the text: as §4

Row | SMILES | Herbicidal effects Ec
10 | Cn1c(C(F)(F)F)ccc(-c2cc(OCC(F)F)c(Cl)cc2F)c1=O [1-173] | 5

Tested on: green foxtail (Se)
Assay: Test Example 7: crop plant selectivity by upland field soil treatment (corn), herbicidal effects
Type: in vivo
Parameters: scale not given here
Conditions: dose 6.3 g ai/10a, 21st day after application
Experimental: as §1, §2

Row | SMILES | Herbicidal effects Se
11 | Cn1c(C(F)(F)F)ccc(-c2cc(OCC(F)F)c(Cl)cc2F)c1=O [1-173] | 5

Tested on: common lambsquarters (Ch)
Assay: as above
Type: in vivo
Parameters: scale not given here
Conditions: dose 6.3 g ai/10a, 21st day after application
Experimental: as §1, §2

Row | SMILES | Herbicidal effects Ch
12 | Cn1c(C(F)(F)F)ccc(-c2cc(OCC(F)F)c(Cl)cc2F)c1=O [1-173] | 5

Tested on: China jute (Ab)
Assay: as above
Type: in vivo
Parameters: scale not given here
Conditions: dose 6.3 g ai/10a, 21st day after application
Experimental: as §1, §2

Row | SMILES | Herbicidal effects Ab
13 | Cn1c(C(F)(F)F)ccc(-c2cc(OCC(F)F)c(Cl)cc2F)c1=O [1-173] | 5

Tested on: slender amaranth (Am)
Assay: as above
Type: in vivo
Parameters: scale not given here
Conditions: dose 6.3 g ai/10a, 21st day after application
Experimental: as §1, §2

Row | SMILES | Herbicidal effects Am
14 | Cn1c(C(F)(F)F)ccc(-c2cc(OCC(F)F)c(Cl)cc2F)c1=O [1-173] | 5

Tested on: pale smartweed (Po)
Assay: as above
Type: in vivo
Parameters: scale not given here
Conditions: dose 6.3 g ai/10a, 21st day after application
Experimental: as §1, §2

Row | SMILES | Herbicidal effects Po
15 | Cn1c(C(F)(F)F)ccc(-c2cc(OCC(F)F)c(Cl)cc2F)c1=O [1-173] | 5

Tested on: green foxtail (Se)
Assay: Test Example 6: crop plant selectivity by upland field soil treatment (soybean), herbicidal effects
Type: in vivo
Parameters: scale not given here
Conditions: dose 6.3 g ai/10a, 21st day after application
Experimental: as §1
(§5) In a plastic pot (surface area: 600 cm^2) filled with sand, soybean (Gl), Diaitaria ciliaris (Di), green foxtail (Se), Johnsongrass (So), pale smartweed (Po), slender amaranth (Am), common lambsquarters (Ch) and China jute (Ab) were sown and covered with soil. […] The plants were then cultured in a green house, and the evaluation of the herbicidal effects and phytotoxicity was conducted on the 21st day after the application in accordance with the standards as identified in Table 47. Symbol—represents “not tested”.

Row | SMILES | Herbicidal effects Se
16 | Cn1c(C(F)(F)F)ccc(-c2cc(OCC(F)F)c(Cl)cc2F)c1=O [1-173] | 5

Tested on: common lambsquarters (Ch)
Assay: as above
Type: in vivo
Parameters: scale not given here
Conditions: dose 6.3 g ai/10a, 21st day after application
Experimental: as §1, §5

Row | SMILES | Herbicidal effects Ch
17 | Cn1c(C(F)(F)F)ccc(-c2cc(OCC(F)F)c(Cl)cc2F)c1=O [1-173] | 5

Tested on: China jute (Ab)
Assay: as above
Type: in vivo
Parameters: scale not given here
Conditions: dose 6.3 g ai/10a, 21st day after application
Experimental: as §1, §5

Row | SMILES | Herbicidal effects Ab
18 | Cn1c(C(F)(F)F)ccc(-c2cc(OCC(F)F)c(Cl)cc2F)c1=O [1-173] | 5

Tested on: slender amaranth (Am)
Assay: as above
Type: in vivo
Parameters: scale not given here
Conditions: dose 6.3 g ai/10a, 21st day after application
Experimental: as §1, §5

Row | SMILES | Herbicidal effects Am
19 | Cn1c(C(F)(F)F)ccc(-c2cc(OCC(F)F)c(Cl)cc2F)c1=O [1-173] | 5
